The results in this text go back to the supplement of paper PMC10307832.

Common to all, as to assay: relative viability (nuclei count vs DMSO), 5 days (fraction); higher = more cells survive
Compound in the assay “Mirin + Foretinib”: N=C1NC(=O)/C(=C/c2ccc(O)cc2)S1 [Mirin] + COc1cc2c(Oc3ccc(NC(=O)C4(C(=O)Nc5ccc(F)cc5)CC4)cc3F)ccnc2cc1OCCCN1CCOCC1 [Foretinib] (partner 0.25 µM)
An outline of the steps:
(§1)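 Dosing by pin tool came one day after lung cancer cell lines were seeded in 1536-well plates, using either one drug or a fixed anchor-drug dose plus five library-drug doses (not always all listed) in √10 steps. After 5 days, nuclei were counted on 4× images. Relative viability is treated-well nuclei count divided by vehicle-well nuclei count, and values are medians of duplicate plates.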

Compound in assay [1]: CCC1=CN=CN=C1N2CCN(CC2)CC3=NC4=C(N3)C=C(C=C4)C(F)(F)F + COc1cccc2cc(-c3nc([C@H]4CC[C@H](C(=O)O)CC4)n4ncnc(N)c34)[nH]c12 [OSI-027] (partner 0.5 µM)
In a few lines:
as §1

Compound in assay [2]: CCC1=CN=CN=C1N2CCN(CC2)CC3=NC4=C(N3)C=C(C=C4)C(F)(F)F + Nc1ncn([C@H]2C[C@H](O)[C@@H](CO)O2)c(=O)n1 [Decitabine] (partner 2 µM)
An outline of the steps: as §1

Compound in assay [3]: CCn1c(-c2nonc2N)nc2cnc(Oc3cccc(NC(=O)c4ccc(OCCN5CCOCC5)cc4)c3)cc21 + Nc1ncn([C@H]2C[C@H](O)[C@@H](CO)O2)c(=O)n1 [Decitabine] (partner 2 µM)
An outline of the steps:
as §1

With NCI-H2126, the relative viability in the assay with Mirin + Foretinib (first compound 0.25 µM) was determined as 1.35; in the assay with Mirin + Foretinib (first compound 0.7906 µM), 1.02; in the assay with Mirin + Foretinib (first compound 2.5 µM), 1.31; with Mirin + Foretinib (first compound 7.906 µM), 1.16; with Mirin + Foretinib (first compound 25 µM) it was 1.13; in assay [1] (first compound 0.04 µM), 0.759. Further, the relative viability was determined as 0.688 in assay [1] (first compound 0.1265 µM); 0.624 in assay [1] (first compound 0.4 µM); 0.628 in assay [1] (first compound 1.265 µM); 0.708 in assay [1] (first compound 4 µM); 0.598 in assay [2] (first compound 0.04 µM); 0.58 in assay [2] (first compound 0.1265 µM). For the same cell line, the relative viability was found to be 0.595 in assay [2] (first compound 0.4 µM); 0.541 in assay [2] (first compound 1.265 µM); 0.58 in assay [2] (first compound 4 µM); 0.629 in assay [3] (first compound 0.04 µM); 0.623 in assay [3] (first compound 0.1265 µM); 0.56 in assay [3] (first compound 0.4 µM). Also, the relative viability worked out at 0.636 in assay [3] (first compound 1.265 µM) and 0.519 in assay [3] (first compound 4 µM).
Regarding NCI-H2170, the relative viability with Mirin + Foretinib (first compound 0.25 µM) was 1.05; with Mirin + Foretinib (first compound 0.7906 µM), 1; in the assay with Mirin + Foretinib (first compound 2.5 µM), 1.02; with Mirin + Foretinib (first compound 7.906 µM), 0.928; with Mirin + Foretinib (first compound 25 µM) it was 0.98; in assay [1] (first compound 0.04 µM) it was 0.672. The relative viability turned out to be 0.682 in assay [1] (first compound 0.1265 µM); 0.752 in assay [1] (first compound 0.4 µM); 0.732 in assay [1] (first compound 1.265 µM); 0.726 in assay [1] (first compound 4 µM); 0.44 in assay [2] (first compound 0.04 µM); 0.462 in assay [2] (first compound 0.1265 µM). Also, the relative viability in assay [2] (first compound 0.4 µM) was determined as 0.451; in assay [2] (first compound 1.265 µM) it was 0.433; in assay [2] (first compound 4 µM) it was 0.461; in assay [3] (first compound 0.04 µM) it was 0.473; in assay [3] (first compound 0.1265 µM) it was 0.494; in assay [3] (first compound 0.4 µM), 0.494. Also, the relative viability was 0.474 in assay [3] (first compound 1.265 µM) and 0.431 in assay [3] (first compound 4 µM).
For NCI-H2342, the relative viability in the assay with Mirin + Foretinib (first compound 0.25 µM) was 1.14; with Mirin + Foretinib (first compound 0.7906 µM), 1.11; in the assay with Mirin + Foretinib (first compound 2.5 µM), 1.15; with Mirin + Foretinib (first compound 7.906 µM) it was 1.03; in the assay with Mirin + Foretinib (first compound 25 µM), 0.861; in assay [1] (first compound 0.04 µM) it was 0.607. Besides, the relative viability in assay [1] (first compound 0.1265 µM) is 0.577; in assay [1] (first compound 0.4 µM), 0.574; in assay [1] (first compound 1.265 µM) it was 0.479; in assay [1] (first compound 4 µM), 0.586; in assay [2] (first compound 0.04 µM), 0.689; in assay [2] (first compound 0.1265 µM), 0.728. The relative viability was found to be 0.707 in assay [2] (first compound 0.4 µM); 0.575 in assay [2] (first compound 1.265 µM); 0.513 in assay [2] (first compound 4 µM); 0.664 in assay [3] (first compound 0.04 µM); 0.755 in assay [3] (first compound 0.1265 µM); 0.814 in assay [3] (first compound 0.4 µM). Moreover, the relative viability in assay [3] (first compound 1.265 µM) came to 0.579; in assay [3] (first compound 4 µM), 0.687.
As for NCI-H2347, the relative viability with Mirin + Foretinib (first compound 0.25 µM) worked out at 1.08; in the assay with Mirin + Foretinib (first compound 0.7906 µM), 0.652; in the assay with Mirin + Foretinib (first compound 2.5 µM), 1.17; with Mirin + Foretinib (first compound 7.906 µM), 0.683; with Mirin + Foretinib (first compound 25 µM), 0.879; in assay [1] (first compound 0.04 µM), 0.471. In addition, the relative viability in assay [1] (first compound 0.1265 µM) worked out at 0.446; in assay [1] (first compound 0.4 µM) it was 0.374; in assay [1] (first compound 1.265 µM) it was 0.262; in assay [1] (first compound 4 µM) it was 0.406; in assay [2] (first compound 0.04 µM) it was 0.666; in assay [2] (first compound 0.1265 µM), 0.551. Further, the relative viability was determined as 0.63 in assay [2] (first compound 0.4 µM); 0.613 in assay [2] (first compound 1.265 µM); 0.529 in assay [2] (first compound 4 µM); 0.607 in assay [3] (first compound 0.04 µM); 0.565 in assay [3] (first compound 0.1265 µM); 0.624 in assay [3] (first compound 0.4 µM). The results for the relative viability in assay [3] (first compound 1.265 µM) and in assay [3] (first compound 4 µM) were 0.461 and 0.434, respectively.
On to NCI-H2405, for which the relative viability with Mirin + Foretinib (first compound 0.25 µM) came out at 1.04; with Mirin + Foretinib (first compound 0.7906 µM) it was 1.04; with Mirin + Foretinib (first compound 2.5 µM), 1.01; with Mirin + Foretinib (first compound 7.906 µM) it was 1.03; with Mirin + Foretinib (first compound 25 µM), 1.07; in assay [1] (first compound 0.04 µM), 0.723. Further, the relative viability in assay [1] (first compound 0.1265 µM) amounted to 0.614; in assay [1] (first compound 0.4 µM), 0.669; in assay [1] (first compound 4 µM) it was 0.717; in assay [2] (first compound 0.04 µM), 0.748; in assay [2] (first compound 0.1265 µM) it was 0.715; in assay [2] (first compound 0.4 µM), 0.711. Also, the relative viability worked out at 0.795 in assay [2] (first compound 4 µM); 0.68 in assay [3] (first compound 0.04 µM); 0.473 in assay [3] (first compound 0.1265 µM); 0.327 in assay [3] (first compound 0.4 µM); 0.251 in assay [3] (first compound 1.265 µM); 0.241 in assay [3] (first compound 4 µM).
As for NCI-H3122, the relative viability with Mirin + Foretinib (first compound 0.25 µM) turned out to be 0.919; with Mirin + Foretinib (first compound 0.7906 µM), 0.906; with Mirin + Foretinib (first compound 2.5 µM), 0.934; with Mirin + Foretinib (first compound 7.906 µM) it was 1.08; in the assay with Mirin + Foretinib (first compound 25 µM) it was 1.09; in assay [1] (first compound 0.04 µM), 1.02. In addition, the relative viability in assay [1] (first compound 0.1265 µM) came out at 0.974; in assay [1] (first compound 0.4 µM) it was 0.937; in assay [1] (first compound 1.265 µM), 0.938; in assay [1] (first compound 4 µM) it was 1.17; in assay [2] (first compound 0.04 µM), 0.387; in assay [2] (first compound 0.1265 µM), 0.459. In addition, the relative viability in assay [2] (first compound 0.4 µM) stood at 0.418; in assay [2] (first compound 1.265 µM), 0.452; in assay [2] (first compound 4 µM), 0.351; in assay [3] (first compound 0.04 µM), 0.429; in assay [3] (first compound 0.1265 µM) it was 0.428; in assay [3] (first compound 0.4 µM), 0.49. Further, the relative viability in assay [3] (first compound 1.265 µM) turned out to be 0.401; in assay [3] (first compound 4 µM) it was 0.42.
On to PC-3 [JPC-3], for which the relative viability in the assay with Mirin + Foretinib (first compound 0.25 µM) stood at 1.05; with Mirin + Foretinib (first compound 0.7906 µM), 1.13; with Mirin + Foretinib (first compound 2.5 µM) it was 1.02; with Mirin + Foretinib (first compound 7.906 µM), 1.14; with Mirin + Foretinib (first compound 25 µM), 1.3; in assay [1] (first compound 0.04 µM), 0.65. The relative viability in assay [1] (first compound 0.1265 µM) stood at 0.67; in assay [1] (first compound 0.4 µM), 0.705; in assay [1] (first compound 1.265 µM), 0.731; in assay [1] (first compound 4 µM) it was 0.728; in assay [2] (first compound 0.1265 µM) it was 0.779; in assay [2] (first compound 0.4 µM), 0.706. Moreover, the relative viability in assay [2] (first compound 1.265 µM) was found to be 0.771; in assay [2] (first compound 4 µM), 0.835; in assay [3] (first compound 0.04 µM), 0.803; in assay [3] (first compound 0.1265 µM), 0.764; in assay [3] (first compound 0.4 µM) it was 0.764; in assay [3] (first compound 1.265 µM), 0.655. For the same cell line, the relative viability in assay [3] (first compound 4 µM) turned out to be 0.725.
